Laboratory results from publication PMC10141604, “Small-Molecule Inhibition of Androgen Receptor Dimerization as a Strategy against Prostate Cancer” (ACS Central Science, 2023).

How the values were obtained:
[1] = target: T1, AR LBD dimer (Homo sapiens, UniProt P10275); assay: SAXS and CXMS analysis of AR LBD dimerization; format: biochemical
T1 construct: The AR LBD (663-919) was fused into the pET50b vector with Nus-tag; Nus-tag (cleaved yes); made in house; host or cells: E. coli BL21 (DE3)
Method: 30 μM AR LBD protein was crosslinked with a 50× molar excess of freshly prepared BS3 (#21580, ThermoFisher) in 20 mM HEPES (pH 7.4), 5% Glycerol, 150 mM NaCl, 10 μM DHT, with or without 90 μM M17-B15. The cross-linking reaction was conducted at room temperature with gentle mixing, and was quenched after 45 min with the addition of Tris-HCl buffer (pH 8.0) to a concentration of 20 mM.
Cross-linked proteins were precipitated with 6-fold volume of pre-cooled acetone for 2 h at -20 °C. Centrifuge at 14,000 rpm for 20 min, and discard the supernatant. Then added 20 μL 100 mM Tris-HCl buffer (pH 8.5), 8 M urea, and ultrasound for 20 min to assist protein dissolution. 5 mM reducing agent TCEP, 10 mM alkylating agent iodoacetamide, 1 mM CaCl2 and 20 mM methylamine were added in tandem. And 3-fold volume of 100 mM Tris pH 8.5 was added to dilute urea to 2 M. Then added trypsin (the mass ratio of enzyme to protein is 1:50) and digested the protein samples at 37 °C for 14 h. Finally, quenched the digestion reaction by adding formic acid with a final […]
An Easy nLC 1000 system (ThermoFisher) coupled to a Velos Pro Orbitrap Elite mass spectrometer (ThermoFisher) was used for mass spectrometry analysis. The resulting peptide mixture was vacuum-centrifuged to dryness, and reconstituted in 0.1% formic acid. […]
respectively. […] The scattering profile for matching buffer was also recorded and was subtracted. […]

[2] = test system: DHT-induced AR nuclear translocation in LNCaP cells; assay: Nuclear and cytoplasmic fractionation, AR nuclear translocation; format: cell-based; settings: 10 μM, 10 nM DHT, 16 h
Method: (§3) h incubation at room temperature, each membrane was further incubated with specific
(§4) Lamin B1, #AF1408, Beyotime Biotechnology) and then the corresponding secondary antibody (HRP-conjugated Goat Anti-Rabbit IgG, # D110058, Sangon Biotech). The Image J program was performed for quantitative analysis of the immunoreactive bands.
Extraction of Nuclear and Cytoplasmic Fractions
presence of 10 nM DHT and incubated for 16 h. The NE-PER Nuclear and Cytoplasmic
extraction of nuclear and cytoplasmic proteins according to manufacturer’s protocol.

[3] = test system: 22RV1; assay: MTT cell viability assay, 22RV1; format: cell-based; settings: 72 h
Method: (§1) 3-(4,5-dimethythiazol-2-yl)-2,5-diphenyl-2-H-tetrazolium bromide (MTT) colorimetric assay was employed to investigate cell viability. Cells were seeded into 96-well plates with 2-5× 10^3 cells per well (5× 10^3 cells/well for LNCaP, 22RV1, NIH-3T3, GES-1, Chang, […]
(§2) NCI-H1299, U2OS, U87) for 1 day incubation at 37 °C. Then, the cells were treated with various concentrations of compounds (22.86 nM - 50 μM) and incubated for 72 h. Then, 10 μl MTT (5 mg/ml) was added into each well and incubated for 4 h. Afterwards, 100 μl of triplex 10% SDS-0.1% HCl-phosophate-buffered saline (PBS) solutions was added into each well and incubated for overnight. The absorbance at 570 nm was measured (Eon, Bioteck, Winooski, VT). […]

[4] = test system: Du145; assay: MTT cell viability assay, Du145; format: cell-based; settings: 72 h
Method: as §1, §2

[5] = Solubility (statement); format: physicochemical
[6] = target: FL-AR^F876L/T877A (Homo sapiens, UniProt P10275, F877L/T878A); assay: Dual-luciferase reporter assay for FL-AR F876L/T877A in PC3 cells
FL-AR^F876L/T877A, sequence (P10275 whole entry F877L/T878A): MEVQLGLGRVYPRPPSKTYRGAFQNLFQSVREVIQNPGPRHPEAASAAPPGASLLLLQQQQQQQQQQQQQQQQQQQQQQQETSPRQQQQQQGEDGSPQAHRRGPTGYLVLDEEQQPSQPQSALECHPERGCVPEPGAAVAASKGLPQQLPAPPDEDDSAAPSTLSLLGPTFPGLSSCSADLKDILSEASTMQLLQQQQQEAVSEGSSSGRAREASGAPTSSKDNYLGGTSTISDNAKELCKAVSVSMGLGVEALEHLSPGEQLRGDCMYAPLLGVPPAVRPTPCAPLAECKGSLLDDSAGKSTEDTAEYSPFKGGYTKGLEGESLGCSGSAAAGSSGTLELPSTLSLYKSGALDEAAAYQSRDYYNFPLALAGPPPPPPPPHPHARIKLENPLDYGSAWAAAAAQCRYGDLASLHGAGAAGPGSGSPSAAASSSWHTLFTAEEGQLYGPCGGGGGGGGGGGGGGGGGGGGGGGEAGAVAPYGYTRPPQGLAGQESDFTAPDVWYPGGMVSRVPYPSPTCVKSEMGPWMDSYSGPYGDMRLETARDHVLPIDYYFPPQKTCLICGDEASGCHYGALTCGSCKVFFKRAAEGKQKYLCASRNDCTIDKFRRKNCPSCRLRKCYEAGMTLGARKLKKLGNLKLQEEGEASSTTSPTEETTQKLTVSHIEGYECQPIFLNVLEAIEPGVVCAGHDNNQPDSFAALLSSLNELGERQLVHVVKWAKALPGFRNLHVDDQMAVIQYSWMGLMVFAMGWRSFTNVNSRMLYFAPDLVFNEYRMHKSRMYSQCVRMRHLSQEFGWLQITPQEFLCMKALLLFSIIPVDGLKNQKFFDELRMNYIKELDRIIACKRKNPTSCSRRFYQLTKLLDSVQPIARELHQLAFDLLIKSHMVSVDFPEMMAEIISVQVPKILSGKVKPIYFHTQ
Method: Luciferase Reporter Assays for FL -ARF876L and FL-ARF876L/T877A
constructed on the basis of the human full length wild type AR plasmid pCMV -hAR
transfected with 70 ng/well of FL -AR plasmid together with 24 ng of ARR2PB -Luc, and 5 ng of Renilla. After 1 day incubation at 37 °C , the antagonistic models were employed
After another 24 h incubation, the luciferase activities were determined by the Dual -Glo Luciferase system (#E1910, Promega) according to the

[7] = test system: endogenous PSA and AR in LNCaP cells; assay: Western blot of PSA and AR in LNCaP cells; format: cell-based; settings: 10 nM DHT, 48 h
Method: individually, and all in the presence of 10 nM DHT and incubated for 48 h. Then, the cells were harvested, followed by separating the cell lysate using 10% SDS-PAGE and electro-transfer to a polyvinylidene fluoride (PVDF) membrane (Bio -Rad). Blocking buffer (#P0023B, Beyotime Biotechnology) were used to block the membranes. After 0.5
as §3, §4

T1 sequence (P10275 663-919): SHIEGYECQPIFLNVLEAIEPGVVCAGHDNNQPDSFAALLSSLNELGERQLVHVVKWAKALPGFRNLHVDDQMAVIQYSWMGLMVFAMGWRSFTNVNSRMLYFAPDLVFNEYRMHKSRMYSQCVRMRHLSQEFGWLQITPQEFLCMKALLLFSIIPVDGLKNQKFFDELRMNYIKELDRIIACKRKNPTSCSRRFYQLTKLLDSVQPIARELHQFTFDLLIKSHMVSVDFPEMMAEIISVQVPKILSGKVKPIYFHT

Dmax value of the AR LBD (SAXS) ([1]; upon addition of compound): markedly reduced
proportion of the AR LBD dimer ([1]; with DHT, 20% without M17-B15): 15%
solubility [5]: poor solubility
IC50 [6]: 150 nM
SMILES: CC(=O)Cc1nsc(NC(=O)c2cc(-c3cccc(C(F)(F)F)c3)oc2C)n1 [Compound M17-B15]
DHT-induced AR nuclear translocation [2]: inhibit
inhibition on the cell viability of 22RV1 [3]: does not show obvious inhibition
inhibition on the cell viability of Du145 [4]: does not show obvious inhibition
AR levels (Western blot) ([7]; LNCaP): does not affect
endogenous PSA production (Western blot) ([7]; LNCaP, 0.1, 1, 10 μM): remarkably inhibited
